# Results: patent US20210300913A1, “DEUTERATED DERIVATIVES OF LANIFIBRANOR” (lNVENTlVA, priority 2018, published 2021)
# Columns and labels:
# Type in all cases: cell-based
# [1] = biological target: T1, human receptor PPARα-Gal4 (Homo sapiens, UniProt Q07869); assay: PPAR-Gal4 transactivation test in transfected Cos-7 cells (luciferase reporter), PPARα; details: for EC50: Cos-7 cells, overnight incubation; for Human receptor PPARα Top: induction as percentage of reference fenofibric acid at 10^-5 M (=100%)
# T1 sequence (Q07869 200-468 limits assumed): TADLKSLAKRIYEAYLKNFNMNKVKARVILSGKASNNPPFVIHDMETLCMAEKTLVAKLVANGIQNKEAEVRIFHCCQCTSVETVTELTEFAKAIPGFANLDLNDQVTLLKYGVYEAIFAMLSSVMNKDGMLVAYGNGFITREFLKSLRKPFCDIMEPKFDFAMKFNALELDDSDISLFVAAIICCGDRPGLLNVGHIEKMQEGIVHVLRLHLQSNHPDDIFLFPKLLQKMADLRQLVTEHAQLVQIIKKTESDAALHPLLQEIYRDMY
# Experimental: (§1) A transactivation test was used as the primary screening test. Cos-7 cells were transfected with a plasmid expressing a chimera of a murine or human receptor PPAR-Gal4 (receptor PPARα-Gal4 or PPARδ-Gal4 or PPARγ-Gal4) and of a reporter plasmid 5Gal4pGL3 TK Luc. The transfections were carried out using a chemical agent (Jet PEI). Transfected cells were distributed into 384 well plates and allowed to stand for 24 hours. At 24 hours the culture medium was changed. The products to be tested were added (final concentration between 10^−4 and 3.10^−10 M) to the culture medium. After overnight incubation, luciferase expression was measured after addition of “SteadyGlo” according to the manufacturer's instructions (Promega).
# (§2) Fenofibric acid at 10^−5 M (PPARα agonist), GW501516 at 10^−8 M (PPARδ agonist) and rosiglitazone at 10^−6 M (PPARγ agonist) were used as references.
# (§3) The results are expressed as the induction rate (number of times) compared to the basal level as a percentage of activity of the adequate reference (reference=100%). Effect-concentration curves and EC50 were calculated using Assay Explorer (MDL) software.
# [2] = biological target: T2, human receptor PPARδ-Gal4 (Homo sapiens, UniProt Q03181); assay: PPAR-Gal4 transactivation test in transfected Cos-7 cells (luciferase reporter), PPARδ; details: for EC50: Cos-7 cells, overnight incubation; for Human receptor PPARδ Top: induction as percentage of reference GW501516 at 10^-8 M (=100%)
# T2 sequence (Q03181 171-441 limits assumed): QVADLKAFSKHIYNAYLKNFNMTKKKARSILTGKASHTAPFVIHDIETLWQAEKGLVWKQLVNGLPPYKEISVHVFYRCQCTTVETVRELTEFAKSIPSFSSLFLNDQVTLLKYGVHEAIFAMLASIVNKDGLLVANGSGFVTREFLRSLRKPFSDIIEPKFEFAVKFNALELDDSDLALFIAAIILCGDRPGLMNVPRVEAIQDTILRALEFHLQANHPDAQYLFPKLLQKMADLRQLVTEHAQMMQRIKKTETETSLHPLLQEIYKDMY
# Experimental: as §1, §2, §3
# [3] = biological target: T3, human receptor PPARγ-Gal4 (Homo sapiens, UniProt P37231); assay: PPAR-Gal4 transactivation test in transfected Cos-7 cells (luciferase reporter), PPARγ; details: for EC50: Cos-7 cells, overnight incubation; for Human receptor PPARγ Top: induction as percentage of reference rosiglitazone at 10^-6 M (=100%)
# T3 sequence (P37231 238-505 limits assumed): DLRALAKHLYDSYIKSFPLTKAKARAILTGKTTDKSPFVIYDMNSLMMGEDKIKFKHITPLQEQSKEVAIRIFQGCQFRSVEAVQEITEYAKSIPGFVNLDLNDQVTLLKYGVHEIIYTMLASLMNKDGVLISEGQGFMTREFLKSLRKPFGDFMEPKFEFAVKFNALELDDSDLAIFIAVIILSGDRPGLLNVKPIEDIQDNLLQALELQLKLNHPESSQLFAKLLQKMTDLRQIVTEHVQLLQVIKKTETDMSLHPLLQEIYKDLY
# Experimental: as §1, §2, §3
SMILES,EC50 [1] [nM],Human receptor PPARα Top [1] [%],EC50 [2] [nM],Human receptor PPARδ Top [2] [%],EC50 [3] [nM],Human receptor PPARγ Top [3] [%]
"[2H]C([2H])(C(=O)O)C([2H])([2H])C([2H])([2H])c1cc2cc(Cl)ccc2n1S(=O)(=O)c1ccc2ncsc2c1 [Example 2, 4-[1-(1,3-Benzothiazol-6-ylsulfonyl)-5-chloro-indol-2-yl]-2,2,3,3,4,4-hexadeuteriobutanoic acid]",2280,62,1180,80,136,50
O=C(O)CCCc1cc2cc(Cl)ccc2n1S(=O)(=O)c1ccc2ncsc2c1 [Example 1],2320,–,952,–,85,–
[2H]c1nc2ccc(S(=O)(=O)n3c(CCCC(=O)O)cc4cc(Cl)ccc43)cc2s1 [Example 1],–,67,–,80,–,53
